10 compounds from patent publication US11904020B2, “Bicyclic peptide ligands specific for TREM2” (Bicycle Tx Limited, priority 2021, dated 2024) can be followed below.

The structures appear in SMILES notation. Read-outs that look alike come from different tables or passages of the source. *1 amine or outer side, *2 acyl side, *3 side chain or, on linkers, in order; H or OH if unused. Where a SMILES comes first, the peptide text is derived from it. Bridges are numbered along the chain shown (N, C = ends). [ ]: non-standard residue; d: D form. TATA = O=C(CC[*:1])N1CN(C(=O)CC[*:2])CN(C(=O)CC[*:3])C1; Phe(4-Me) = Cc1ccc(C[C@H](N)C(=O)O)cc1; 1Nal = N[C@@H](Cc1cccc2ccccc12)C(=O)O; 2Nal = N[C@@H](Cc1ccc2ccccc2c1)C(=O)O; hPhe = N[C@@H](CCc1ccccc1)C(=O)O; NMeA = CN[C@@H](C)C(=O)O

One experiment deals with T1, TREM2 receptor (Homo sapiens, UniProt Q9NZC2).
T1 construct: Both parental (TREM2 expressing) and isogenic TREM2 KO iPSC macrophages were plated; endogenous in cells; host or cells: human iPSC-derived macrophages (parental, TREM2 expressing)
T1 sequence (Q9NZC2 19-230): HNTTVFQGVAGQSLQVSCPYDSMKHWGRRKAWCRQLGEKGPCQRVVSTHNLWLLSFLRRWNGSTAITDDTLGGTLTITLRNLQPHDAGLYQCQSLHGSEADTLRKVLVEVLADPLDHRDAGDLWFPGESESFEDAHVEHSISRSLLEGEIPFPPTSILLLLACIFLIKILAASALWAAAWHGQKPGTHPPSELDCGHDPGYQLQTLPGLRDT
In words: pSYK Homogenous Time Resolved Fluorescence (HTRF) assay in iPSC macrophages. The class given is cell-based. On the procedure: Quantitative assessment of total and phospho (Tyr 525/526) SYK was performed on iPSC macrophages using CisBio total and phospho-SYK HTRF kits (catalogue numbers 64SYKTPGG and 64SYKY525-PEG respectively). Human iPSC macrophage precursors derived from embryoid bodies were plated in 96 well plates (Perkin Elmer Cell Carrier ultra, black walled plates, #6055800) at a density of 40 k cells per well in 100 μl macrophage media (XVIVO15 (Lonza, #BE04-418F), 1% Penicillin-Streptomycin (Gibco, #15140-122), 1% GlutaMAX™ Supplement (Gibco, #35050-038), 0.1% M-CSF (Invitrogen, #PHC9501)). Cells were grown for 7 days to induce full differentiation to iPSC macrophages. Both parental (TREM2 expressing) and isogenic TREM2 KO iPSC macrophages were plated to test for specificity of peptide binding. Following differentiation, cells were stimulated for 5 mins with either the control TREM2 activating antibody (R&D systems, #AF1828), a human IgG control (R&D systems, #AB-108-C), or a 10 point CRC of bicyclic peptide (serial 2 fold dilutions from a starting concentration of 100 μM). Following stimulation the media was removed, and cells were lysed in 50 μl lysis buffer (supplied with the kit) per well. Cells were incubated in LB3 for 30 mins with shaking at room temperature. Following lysis, 16 μl of sample was removed and added to a white 384 well plate (ProxiPlate-384 Plus (Perkin Elmer, #6008280)) and 4 μl of pre-mixed antibody solution was added to each well of the plate. The plate was incubated overnight at room temperature, and the following day, […] was measured at 665 nm and 620 nm using a Pherastar FSX. The same cell lysate was used to assess total and phosphorylated SYK, to enable the generation of a ratio of phosphorylated SYK in each sample.

The target in experiment [1] is TREM2 extracellular domain (ECD). In words: Bio-Layer Interferometry (BLI) direct binding assay, cyno. On the procedure:
Traces were analysed using Octet Software (Version 11.0).
A general note: In BLI a coated tip is dipped into the sample, and binding shifts an interference pattern.

In experiment [2] the target is TREM2 extracellular domain (ECD) (residues 19-131, C-terminally biotinylated, deglycosylated or glycosylated) (Homo sapiens, UniProt Q9NZC2). Kind of experiment: biochemical.
[3] abbreviates: Human BLI (Kd; nM) (deglycosylated), Table 4A, deglycosylated human TREM2 ECD, steady-state KD, 25° C.
[4] abbreviates: human iPSC macrophages, 5 mins stimulation, phospho (Tyr 525/526) SYK, NB = no binding, read-out: pSYK.

The Kd is the equilibrium constant for the complex coming apart. The compound `C[C@H](N)C(=O)N[C@H]1CSCCC(=O)N2CN3CN(C2)C(=O)CCSC[C@H](NC(=O)[C@H](Cc2ccc(O)cc2)NC(=O)[C@H](CCC(=O)O)NC(=O)[C@H](CO)NC1=O)C(=O)N[C@@H](Cc1ccccc1)C(=O)N[C@@H](Cc1c[nH]c2ccccc12)C(=O)N1CCC[C@H]1C(=O)N[C@@H](Cc1ccccc1)C(=O)N[C@@H](Cc1ccc(O)cc1)C(=O)N[C@@H](Cc1c[nH]cn1)C(=O)N[C@H](C(=O)N[C@@H](C)C(N)=O)CSCCC3=O` [BCY16054, A-(SEQ ID NO: 1)-A] (H-ACSEYCFWPFYHCA-NH2; linker 2-6-13 via TATA; N-terminus and C-terminus assumed) gave an EC50 at TREM2 receptor of 10700 nM. For the same compound, the Kd in experiment [1] (Table 4A) is 3300 nM; in experiment [2] (setting [3]) it was 700 nM; in experiment [2] (KD, binding to the human TREM2 extracellular domain in the BLI assay, FIGS. 1A to 1D) it was around 700 nM.

Regarding `CC(=O)N[C@H]1CSCCC(=O)N2CN3CN(C2)C(=O)CCSC[C@H](NC(=O)[C@H](Cc2ccc(O)cc2)NC(=O)[C@H](CCC(=O)O)NC(=O)[C@H](CO)NC1=O)C(=O)N[C@@H](Cc1ccccc1)C(=O)N[C@@H](Cc1cccc2ccccc12)C(=O)N1CCC[C@H]1C(=O)N[C@@H](Cc1ccccc1)C(=O)N[C@@H](Cc1ccc(O)cc1)C(=O)N[C@@H](C)C(=O)N[C@H](C(N)=O)CSCCC3=O` [BCY19294, Ac-(SEQ ID NO: 32)] (Ac-CSEYCF[1Nal]PFYAC-NH2; linker 1-5-12 via TATA), on TREM2 receptor (setting [4]), the EC50 is below 3400 nM. This compound also yielded a Kd in experiment [2] (setting [3]) of 1500 nM.

In the case of `CC(=O)N[C@H]1CSCCC(=O)N2CN3CN(C2)C(=O)CCSC[C@H](NC(=O)[C@H](Cc2ccc(O)cc2)NC(=O)[C@H](CCC(=O)O)NC(=O)[C@H](CO)NC1=O)C(=O)N[C@@H](Cc1ccccc1)C(=O)N[C@@H](Cc1ccc2ccccc2c1)C(=O)N1CCC[C@H]1C(=O)N[C@@H](Cc1ccccc1)C(=O)N[C@@H](Cc1ccc(O)cc1)C(=O)N[C@@H](C)C(=O)N[C@H](C(N)=O)CSCCC3=O` [BCY19296, Ac-(SEQ ID NO: 33)] (Ac-CSEYCF[2Nal]PFYAC-NH2; linker 1-5-12 via TATA; C-terminus assumed), the EC50 at TREM2 receptor (setting [4]) was below 3400 nM. In experiment [2] (setting [3]), this compound showed a Kd of 2700 nM.

`CC(=O)N[C@H]1CSCCC(=O)N2CN3CN(C2)C(=O)CCSC[C@H](NC(=O)[C@H](Cc2ccc(O)cc2)NC(=O)[C@H](CCC(=O)O)NC(=O)[C@H](CO)NC1=O)C(=O)N[C@@H](Cc1ccccc1)C(=O)N[C@@H](Cc1c[nH]c2ccccc12)C(=O)N1CCC[C@H]1C(=O)N[C@@H](Cc1ccc(C)cc1)C(=O)N[C@@H](Cc1ccc(O)cc1)C(=O)N[C@@H](C)C(=O)N[C@H](C(N)=O)CSCCC3=O` [BCY19299, Ac-(SEQ ID NO: 36)] (Ac-CSEYCFWP[Phe(4-Me)]YAC-NH2; linker 1-5-12 via TATA; C-terminus assumed): the EC50 at TREM2 receptor (setting [4]) is above 10000 nM. In experiment [2] (setting [3]), this compound displayed a Kd of 18000 nM.

`CC(=O)N[C@H]1CSCCC(=O)N2CN3CN(C2)C(=O)CCSC[C@H](NC(=O)[C@H](Cc2ccc(O)cc2)NC(=O)[C@H](CCC(=O)O)NC(=O)[C@H](CO)NC1=O)C(=O)N[C@@H](Cc1ccccc1)C(=O)N[C@@H](Cc1c[nH]c2ccccc12)C(=O)N1CCC[C@H]1C(=O)N[C@@H](CCc1ccccc1)C(=O)N[C@@H](Cc1ccc(O)cc1)C(=O)N[C@@H](C)C(=O)N[C@H](C(N)=O)CSCCC3=O` [BCY19301, Ac-(SEQ ID NO: 35)] (Ac-CSEYCFWP[hPhe]YAC-NH2; linker 1-5-12 via TATA): at TREM2 receptor (setting [4]), the EC50 was below 3400 nM.

As for `CC(=O)N[C@H]1CSCCC(=O)N2CN3CN(C2)C(=O)CCSC[C@H](NC(=O)[C@H](Cc2ccc(O)cc2)NC(=O)[C@H](CCC(=O)O)NC(=O)[C@H](CO)NC1=O)C(=O)N[C@@H](Cc1ccccc1)C(=O)N[C@@H](Cc1c[nH]c2ccccc12)C(=O)N(C)[C@@H](C)C(=O)N[C@@H](Cc1ccccc1)C(=O)N[C@@H](Cc1ccc(O)cc1)C(=O)N[C@@H](C)C(=O)N[C@H](C(N)=O)CSCCC3=O` [BCY19303, Ac-(SEQ ID NO: 34)] (Ac-CSEYCFW[NMeA]FYAC-NH2; linker 1-5-12 via TATA), at TREM2 receptor (setting [4]), the EC50 was below 3400 nM.

As to `C[C@H](N)C(=O)N[C@H]1CSCCC(=O)N2CN3CN(C2)C(=O)CCSC[C@H](NC(=O)[C@H](Cc2ccc(O)cc2)NC(=O)[C@H](CC(N)=O)NC(=O)[C@H]([C@@H](C)O)NC1=O)C(=O)N[C@@H](Cc1ccccc1)C(=O)N[C@@H](Cc1c[nH]c2ccccc12)C(=O)N1CCC[C@H]1C(=O)N[C@@H](Cc1ccccc1)C(=O)N[C@@H](CCC(N)=O)C(=O)N[C@@H](Cc1ccc(O)cc1)C(=O)N[C@H](C(=O)N[C@@H](C)C(N)=O)CSCCC3=O` [BCY19779, A-(SEQ ID NO: 18)-A] (H-ACTNYCFWPFQYCA-NH2; linker 2-6-13 via TATA), the EC50 at TREM2 receptor (setting [4]) came to 2500 nM. The compound also registered a Kd in experiment [2] (setting [3]) of 920 nM.

With `CC(C)C[C@@H]1NC(=O)[C@H](Cc2ccc(O)cc2)NC(=O)[C@H](Cc2ccccc2)NC(=O)[C@@H]2CCCN2C(=O)[C@H](Cc2c[nH]c3ccccc23)NC(=O)[C@H](Cc2ccccc2)NC(=O)[C@@H]2CSCCC(=O)N3CN(CN(C3)C(=O)CCSC[C@@H](C(=O)N[C@@H](C)C(N)=O)NC1=O)C(=O)CCSC[C@H](NC(=O)[C@H](C)N)C(=O)N[C@@H]([C@@H](C)O)C(=O)N[C@@H](CC(N)=O)C(=O)N[C@@H](Cc1ccc(O)cc1)C(=O)N2` [BCY19782, A-(SEQ ID NO: 21)-A] (H-ACTNYCFWPFYLCA-NH2; linker 2-6-13 via TATA), the EC50 at TREM2 receptor (setting [4]) is 3800 nM. The same compound returned a Kd in experiment [2] (setting [3]) of 1400 nM.

With `C[C@H](N)C(=O)N[C@H]1CSCCC(=O)N2CN3CN(C2)C(=O)CCSC[C@H](NC(=O)[C@H](Cc2ccc(O)cc2)NC(=O)[C@H](CCC(=O)O)NC(=O)[C@H](CO)NC1=O)C(=O)N[C@@H](Cc1ccccc1)C(=O)N[C@@H](Cc1c[nH]c2ccccc12)C(=O)N1CCC[C@H]1C(=O)N[C@@H](Cc1ccccc1)C(=O)N[C@@H](CCC(N)=O)C(=O)N[C@@H](Cc1ccc(O)cc1)C(=O)N[C@H](C(=O)N[C@@H](C)C(N)=O)CSCCC3=O` [BCY19784, A-(SEQ ID NO: 23)-A] (H-ACSEYCFWPFQYCA-NH2; linker 2-6-13 via TATA), the EC50 at TREM2 receptor (setting [4]) was found to be 1800 nM.

In experiment [1] (Table 4B), `CC(=O)N[C@H]1CSCCC(=O)N2CN3CN(C2)C(=O)CCSC[C@H](NC(=O)[C@H](Cc2ccc(O)cc2)NC(=O)[C@H](CCC(=O)O)NC(=O)[C@H](CO)NC1=O)C(=O)N[C@@H](Cc1ccccc1)C(=O)N[C@@H](Cc1c[nH]c2ccccc12)C(=O)N1CCC[C@H]1C(=O)N[C@@H](Cc1cccc2ccccc12)C(=O)N[C@@H](Cc1ccc(O)cc1)C(=O)N[C@@H](C)C(=O)N[C@H](C(N)=O)CSCCC3=O` [BCY20722, Ac-(SEQ ID NO: 46)] (Ac-CSEYCFWP[1Nal]YAC-NH2; linker 1-5-12 via TATA) gave a Kd of 3600 nM.
